Reference: paper PMC3544079 (MedChemComm, 2011)

How the values were obtained:
Assay type in all cases: biochemical
[1] = biological target: T1, S. cerevisiae transketolase (Saccharomyces cerevisiae, UniProt P23254); experiment: Inhibition of S. cerevisiae transketolase
T1 sequence (P23254 1-680): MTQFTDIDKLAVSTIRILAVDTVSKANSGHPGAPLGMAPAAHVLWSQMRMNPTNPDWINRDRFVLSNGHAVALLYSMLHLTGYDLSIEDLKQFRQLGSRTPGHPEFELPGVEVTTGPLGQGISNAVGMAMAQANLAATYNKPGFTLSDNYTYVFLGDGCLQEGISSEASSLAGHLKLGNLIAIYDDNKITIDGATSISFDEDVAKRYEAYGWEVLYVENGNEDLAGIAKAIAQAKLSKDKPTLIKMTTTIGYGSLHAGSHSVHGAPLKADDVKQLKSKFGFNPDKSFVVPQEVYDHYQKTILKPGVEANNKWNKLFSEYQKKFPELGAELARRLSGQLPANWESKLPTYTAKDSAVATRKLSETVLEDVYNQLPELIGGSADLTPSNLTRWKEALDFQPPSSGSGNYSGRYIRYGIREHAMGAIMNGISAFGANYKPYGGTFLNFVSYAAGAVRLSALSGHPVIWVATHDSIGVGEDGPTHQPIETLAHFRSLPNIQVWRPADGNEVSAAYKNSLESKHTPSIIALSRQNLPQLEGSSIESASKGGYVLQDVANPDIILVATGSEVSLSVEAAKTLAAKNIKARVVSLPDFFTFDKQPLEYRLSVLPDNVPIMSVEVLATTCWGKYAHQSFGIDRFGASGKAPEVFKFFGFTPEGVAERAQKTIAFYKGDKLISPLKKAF

E. coli DXP synthase = E. coli DXP synthase (Escherichia coli, UniProt P77488); experiment: E. coli DXP synthase inhibition, spectrophotometric coupled assay; details: with respect to pyruvate
Chain of E. coli DXP synthase (P77488 whole entry): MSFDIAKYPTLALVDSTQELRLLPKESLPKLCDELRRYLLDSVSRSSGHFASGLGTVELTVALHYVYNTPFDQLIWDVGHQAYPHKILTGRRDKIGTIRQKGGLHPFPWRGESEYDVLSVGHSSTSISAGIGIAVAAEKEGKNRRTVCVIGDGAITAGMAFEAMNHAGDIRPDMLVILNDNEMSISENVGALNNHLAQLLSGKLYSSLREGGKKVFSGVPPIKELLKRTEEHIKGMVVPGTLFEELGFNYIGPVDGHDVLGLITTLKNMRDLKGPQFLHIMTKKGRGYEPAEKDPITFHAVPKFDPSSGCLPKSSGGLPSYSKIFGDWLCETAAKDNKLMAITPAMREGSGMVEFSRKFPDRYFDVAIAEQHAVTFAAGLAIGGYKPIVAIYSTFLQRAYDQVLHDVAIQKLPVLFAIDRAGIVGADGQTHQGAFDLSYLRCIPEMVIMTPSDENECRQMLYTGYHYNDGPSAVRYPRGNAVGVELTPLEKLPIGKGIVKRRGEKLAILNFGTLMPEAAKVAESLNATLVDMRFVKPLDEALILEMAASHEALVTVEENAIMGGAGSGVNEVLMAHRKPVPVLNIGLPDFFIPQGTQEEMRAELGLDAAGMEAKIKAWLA

[2] = biological target: T2, Porcine pyruvate dehydrogenase E1 subunit (Sus scrofa, UniProt P29804); experiment: Inhibition of porcine pyruvate dehydrogenase E1 subunit; details: pyruvate varied, 0-1.0 mM BAP
T2 sequence (P29804 30-390 limits assumed): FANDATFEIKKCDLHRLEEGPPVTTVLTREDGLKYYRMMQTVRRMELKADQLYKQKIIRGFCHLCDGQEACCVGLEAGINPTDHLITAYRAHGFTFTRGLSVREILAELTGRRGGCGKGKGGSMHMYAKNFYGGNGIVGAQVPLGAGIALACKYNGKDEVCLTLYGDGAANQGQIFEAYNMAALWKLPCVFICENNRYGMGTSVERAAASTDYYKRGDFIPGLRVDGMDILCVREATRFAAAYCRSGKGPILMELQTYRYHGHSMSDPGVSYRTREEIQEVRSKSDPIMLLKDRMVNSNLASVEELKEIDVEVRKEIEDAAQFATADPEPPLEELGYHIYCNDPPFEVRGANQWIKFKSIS

SMILES | Ki [1] [µM] | mode of inhibition (E. coli DXP synthase) | mode of inhibition [2] | mode of inhibition (E. coli DXP synthase; listed as BAP)
CCOP(=O)([O-])C(C)=O.[Li+] [Compound 2, Ethylacetylphosphonate] | > 1000 | competitive mode of inhibition |  | 
COP(=O)([O-])C(C)=O.[Li+] [Compound 1, Methylacetylphosphonate, reference compound] | > 1000 | competitive inhibitor against pyruvate |  | 
CCCCC(=O)P(=O)(O)OC [Compound 6] | > 1000 |  |  | 
CCCC(=O)P(=O)(O)OC [Compound 5] | > 1000 |  |  | 
CCCCOP(=O)([O-])C(C)=O.[Li+] [Compound 3, butylacetylphosphonate] | > 1000 |  | Competitive inhibition | competitive mode of inhibition
CCC(=O)P(=O)(O)OC [Compound 4] | > 1000 |  |  | 
